Patent US20100204216A1, “PHARMACEUTICAL COMPOSITION FOR […]-beta PROTEIN ACCUMULATION” (SUMMITOMO CHEMICAL COMPANY LIMITED, priority 2007, published 2010)

Test system: CHP212 cells
Assay: Measurement of fluctuation in the amount of Aβ accumulation in cultured nerve cells
Assay type: cell-based
Conditions: cultured nerve cells (human neuroblastoma CHP212); Aβ in the medium by ELISA (Human/Rat Amyloid β1-42 kit) 48 hours after addition of test substance; 10^-12 M to 10^-6 M; versus DMSO control (100%), FIG. 1
Excerpt: FIG. 1 is a diagram showing results of measuring fluctuation caused by a test substance of the formula (a) in the amount of Aβ accumulation in cultured nerve cells (CHP212 cells).
In the diagram, each column represents, starting from the left, a result of measurement obtained in a well to which the test substance has been added so that its final concentration can be 10^−12M (10^−12 M), in a well to which the test substance has been added so that its final concentration can be 10^−11M (10^−11M), in a well to which the test substance has been added so that its final concentration can be 10^−10M (10^−10M), in a well to which the test substance A has been added so that its final concentration can be 10^−9M (10^−9M), in a well to which the test substance has been added so that its final concentration can be 10^−8M (10^−8M), in a well to which the test substance has been added so that its final concentration can be 10^−7M (10^−7M), and in a well to which the test substance has been added so that its final concentration can be 10^−6M (10^−6 M). The results are shown in % by setting a result obtained in a control well to which only a solvent (DMSO) has been added as 100%. […]

O=c1cc(C(F)(F)F)c2cc(N(CC(F)(F)F)CC(F)(F)F)ccc2[nH]1 [formula (a)]
amount of Aβ accumulation: markedly decreased
